Source: ChEMBL document CHEMBL1124905, “Synthesis of new (+-)-3,5-dihydroxypentyl nucleoside analogues from 1-amino-5-(benzyloxy)pentan-3-ol and their antiviral evaluation” (J Med Chem, 1990)
Calls of active or inactive are those of the source. The calls are words filed in the database; no cut-off is given here.

Tests used:
[1] = system: Human immunodeficiency virus 1; assay: Antiviral activity against HIV-1 was determined; No inhibition; format: functional, organism-based
MRC5 = assay: Concentration required for cytotoxicity of MRC5 cell line was determined; format: functional, cell-based; settings: Homo sapiens
Human betaherpesvirus 5 = assay: Antiviral activity against HCMV was determined; No inhibition; format: functional, organism-based
[2] = Compound tested for toxic activity at 100 ug/mL; Not toxic; format: ADME
Human alphaherpesvirus 1 [3] = assay: Compound tested for inhibition of theCPE (Cytopathic effect) of HSV-1 at 12.5 ug/mL; format: functional, herpes simplex virus
Human alphaherpesvirus 1 [4] = assay: Concentration required for suppression of the CPE (Cytopathic effect) of HSV-1; format: functional, organism-based; settings: herpes simplex virus

Nc1ncnc2c1ncn2CCC(O)CCO (configuration not stated)
inhibition [1]: inactive
Concentration (MRC5): 25 µg/mL
inhibition (Human betaherpesvirus 5): inactive

Nc1nc2c(ncn2CCCCO)c(=O)[nH]1
inhibition [1]: inactive
inhibition (Human betaherpesvirus 5): inactive

Nc1nc(O)c2ncn(CCC(CO)CO)c2n1
inhibition [1]: inactive
inhibition (Human betaherpesvirus 5): inactive

Nc1nc2c(ncn2COCCO)c(=O)[nH]1
inhibition [1]: inactive
inhibition (Human betaherpesvirus 5): inactive

Nc1ncnc2c1ncn2C[C@@H](CO)OCP(=O)(O)O
inhibition [1]: inactive
inhibition (Human betaherpesvirus 5): inactive

Nc1nc2c(ncn2CC[C@@H](O)CO)c(=O)[nH]1
inhibition [1]: inactive
inhibition (Human betaherpesvirus 5): inactive

Nc1nc2c(ncn2COC(CO)CO)c(=O)[nH]1
NA [1]: inactive
NA (Human betaherpesvirus 5): inactive

Nc1nc(O)c2ncn(CC[C@H](O)CCO)c2n1
inhibition [1]: inactive
Toxicity [2]: Non-toxic
inhibition at 12.5 µg/mL (Human alphaherpesvirus 1 [3]): 50%
inhibition (Human betaherpesvirus 5): inactive
Concentration (Human alphaherpesvirus 1 [4]): 50 µg/mL

Nc1ncnc2c1ncn2CCOCP(=O)(O)O
inhibition [1]: inactive
inhibition (Human betaherpesvirus 5): inactive

Nc1nc(O)c2ncn(CC(CO)CCO)c2n1 (configuration not stated)
inhibition [1]: inactive
inhibition (Human betaherpesvirus 5): inactive

Nc1ncnc2c1ncn2C=C=CCO
inhibition [1]: inactive
inhibition (Human betaherpesvirus 5): inactive

Nc1ccn(CCC(O)CCO)c(=O)n1 (configuration not stated)
inhibition [1]: inactive
inhibition (Human betaherpesvirus 5): inactive

Nc1ncnc2c1ncn2C[C@H](O)CO
inhibition [1]: inactive
inhibition (Human betaherpesvirus 5): inactive

Cc1cn(CCC(O)CCO)c(=O)[nH]c1=O (configuration not stated)
inhibition [1]: inactive
inhibition (Human betaherpesvirus 5): inactive
